We go through 40 compounds from EP2818472A1, “Imidazo[4,5-c]pyridine and pyrrolo[3,2-c]pyridine compounds as G-protein-coupled receptor kinase 5 (GRK5) modulators” (Max-Planck-Gesellschaft zur Förderung der Wissenschaften …, priority 2013, dated 2014).

For the experiment, the system named is beta-TC6 cells. The experiment can be described thus: Insulin HTRF assay (relative activity Ar) in beta-TC6 cells. It counts as cell-based, mouse. The following applies: Mus musculus, Beta-TC6, 4 h, insulin HTRF, supernatant of beta-TC6 cells, incubation with test compound at 37°C for 2, 3, 4h; read-out: Ar (relative activity). A digest of the protocol: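 beta-TC6 cells (15k/well, seeded 24 or 48 h) washed, then exposed to compound in induction buffer (0.5% DMSO final) for 2, 3 or 4 h at 37°C.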
A general note: Time-resolved FRET reads energy transfer from a long-lived donor to a nearby acceptor.

As for `CN(C)c1ccc(-c2cc3c(cn2)nc(NCc2ccccc2)n3C)cc1` [Compound 615, N-benzyl-6-(4-dimethylaminophenyl)-1-methyl-imidazo[4,5-c]pyridin-2-amine], the Emax was > 100%.
The result for `CNc1nc2cnc(Nc3cccc(OC)c3)cc2n1Cc1ccc(OC)c(OC)c1` [Compound 662, 1-[(3,4-dimethoxyphenyl)methyl]-N6-(3-methoxyphenyl)-N2-methyl-imidazo[4,5-c]pyridine-2,6-diamine] reads 50 to 100%; that for `CNc1nc2cnc(Nc3ccc4c(c3)OCO4)cc2n1-c1ccccc1` [Compound 512, N6-(1,3-benzodioxol-5-yl)-N2-methyl-1-phenyl-imidazo[4,5-c]pyridine-2,6-diamine], 50 to 100%; that for `CC(=O)Nc1cccc(Nc2cc3c(cn2)cc(-c2cnn(C)c2)n3Cc2ccccc2)c1` [Compound 157, N-[3-[[1-benzyl-2-(1-methylpyrazol-4-yl)pyrrolo[3,2-c]pyridin-6-yl]amino]phenyl]acetamide], 50 to 100%.
Regarding `CNc1nc2cnc(Nc3cc(OC)c(OC)c(OC)c3)cc2n1-c1cccc(F)c1` [Compound 679, 1-(3-fluorophenyl)-N2-methyl-N6-(3,4,5-trimethoxyphenyl)imidazo[4,5-c]pyridine-2,6-diamine], the Emax is 50 to 100%.
The result for `COc1ccc(Cn2cnc3cnc(-c4cc(OC)c(OC)c(OC)c4)cc32)cc1OC` [Compound 738, 1-[(3,4-dimethoxyphenyl)methyl]-6-(3,4,5-trimethoxyphenyl)imidazo[4,5-c]pyridine] reads 30 to 50%; that for `CN(C)c1ccc(-c2cc3cnc(Nc4ccccn4)cc3n2C)cc1` [Compound 59, 2-(4-dimethylaminophenyl)-1-methyl-N-(2-pyridyl)pyrrolo[3,2-c]pyridin-6-amine], 0 to 30%; that for `COCCNc1nc2cnc(-c3ccccc3C)cc2n1C` [Compound 770, N-(2-methoxyethyl)-1-methyl-6-(o-tolyl)imidazo[4,5-c]pyridin-2-amine], 0 to 30%.
Turning to `COc1ncccc1-c1cc2c(cn1)nc(NCc1cccc(C)c1)n2C` [Compound 586, 6-(2-methoxy-3-pyridyl)-1-methyl-N-(m-tolylmethyl)imidazo[4,5-c]pyridin-2-amine], the Emax was in the range of 30 to 50%.
In the case of `COc1ccc(Nc2nccc3[nH]c(-c4cccc(O)c4)nc23)cc1` [Compound 362, 3-[4-(4-methoxyanilino)-1H-imidazo[4,5-c]pyridin-2-yl]phenol], the Emax fell in the range of 50 to 100%.
On to `CC(=O)c1cccc(Nc2cc3c(cn2)cc(-c2cccnc2)n3C)c1` [Compound 97, 1-[3-[[1-methyl-2-(3-pyridyl)pyrrolo[3,2-c]pyridin-6-yl]amino]phenyl]ethanone], for which the Emax was 30 to 50%.
Regarding `Cc1cccc(CNc2nc3cnc(Nc4ccc5c(c4)OCCO5)cc3n2C)c1` [Compound 577, N6-(2,3-dihydro-1,4-benzodioxin-6-yl)-1-methyl-N2-(m-tolylmethyl)imidazo[4,5-c]pyridine-2,6-diamine], the Emax is 50 to 100%.
As to `COc1ccc(-c2nc3c(NCC4CC4)nccc3[nH]2)cc1` [Compound 400, N-(cyclopropylmethyl)-2-(4-methoxyphenyl)-1H-imidazo[4,5-c]pyridin-4-amine], the Emax lay in the range of 30 to 50%.
As to `COc1cc(-c2cc3c(cn2)nc(NCc2ccccc2F)n3C)ccc1O` [Compound 656, 4-[2-[(2-fluorophenyl)methylamino]-1-methyl-imidazo[4,5-c]pyridin-6-yl]-2-methoxy-phenol], the Emax was in the range of 30 to 50%.
With `Cc1cccc(CNc2nc3cnc(-c4ccc(N)nc4)cc3n2C)c1` [Compound 811, 6-(6-amino-3-pyridyl)-1-methyl-N-(m-tolylmethyl)imidazo[4,5-c]pyridin-2-amine] the figure was 30 to 50%; with `Fc1cccc(-c2nc3c(Nc4cccc(Oc5ccccc5)c4)nccc3[nH]2)c1` [Compound 408, 2-(3-fluorophenyl)-N-(3-phenoxyphenyl)-1H-imidazo[4,5-c]pyridin-4-amine], 0 to 30%; with `CNc1nc2cnc(Nc3cccc(C(F)(F)F)c3)cc2n1Cc1cccnc1` [Compound 765, N2-methyl-1-(3-pyridylmethyl)-N6-[3-(trifluoromethyl)phenyl]imidazo[4,5-c]pyridine-2,6-diamine], 0 to 30%.
With `CC(=O)Nc1cccc(Nc2cc3c(cn2)nc(NCc2ccccc2)n3C)c1` [Compound 627, N-[3-[[2-(benzylamino)-1-methyl-imidazo[4,5-c]pyridin-6-yl]amino]phenyl]acetamide] the figure was 50 to 100%.
Consider `CNc1nc2cnc(-c3cccc(Cl)c3)cc2n1Cc1ccccc1` [Compound 532, 1-benzyl-6-(3-chlorophenyl)-N-methyl-imidazo[4,5-c]pyridin-2-amine], for which the Emax lay within 50 to 100%.
With `CNc1nc2cnc(Nc3cccc(C)c3)cc2n1Cc1ccccc1` [Compound 530, 1-benzyl-N2-methyl-N6-(m-tolyl)imidazo[4,5-c]pyridine-2,6-diamine] the figure was 30 to 50%; with `COCCNc1nc2cnc(-c3ccc(OC)nc3)cc2n1C` [Compound 751, N-(2-methoxyethyl)-6-(6-methoxy-3-pyridyl)-1-methyl-imidazo[4,5-c]pyridin-2-amine], 0 to 30%; with `CNc1nc2cnc(Nc3cccc(NC(C)=O)c3)cc2n1CC1CC1` [Compound 574, N-[3-[[1-(cyclopropylmethyl)-2-(methylamino)imidazo[4,5-c]pyridin-6-yl]amino]phenyl]acetamide], 50 to 100%.
Consider `COc1cc(Nc2nc3cnc(-c4ccccc4)cc3n2C)cc(OC)c1OC` [Compound 588, 1-methyl-6-phenyl-N-(3,4,5-trimethoxyphenyl)imidazo[4,5-c]pyridin-2-amine], for which the Emax lay in the range of 30 to 50%.
On to `COc1cccc(-c2nc3c(Nc4ccc(OC)c(OC)c4)nccc3[nH]2)c1` [Compound 369, N-(3,4-dimethoxyphenyl)-2-(3-methoxyphenyl)-1H-imidazo[4,5-c]pyridin-4-amine], for which the Emax is > 100%.
For `FC(F)(F)c1cccc(Nc2cc3[nH]c(-c4ccccn4)cc3cn2)c1` [Compound 66, 2-(2-pyridyl)-N-[3-(trifluoromethyl)phenyl]-1H-pyrrolo[3,2-c]pyridin-6-amine], the Emax is 30 to 50%.
The result for `COc1cc(CNc2nccc3[nH]c(-c4ccccc4Cl)nc23)cc(OC)c1OC` [Compound 460, 2-(2-chlorophenyl)-N-[(3,4,5-trimethoxyphenyl)methyl]-1H-imidazo[4,5-c]pyridin-4-amine] reads 0 to 30%; that for `COc1cc(OC)cc(-c2cc3c(Nc4ccc(S(C)(=O)=O)cc4)nccc3[nH]2)c1` [Compound 293, 2-(3,5-dimethoxyphenyl)-N-(4-methylsulfonylphenyl)-1H-pyrrolo[3,2-c]pyridin-4-amine], 50 to 100%.
Regarding `CNc1nc2cnc(-c3ccc(C(N)=O)cc3)cc2n1-c1ccccc1` [Compound 786, 4-[2-(methylamino)-1-phenyl-imidazo[4,5-c]pyridin-6-yl]benzamide], the Emax fell in the range of 0 to 30%.
In the case of `Clc1ccc(CNc2nccc3[nH]c(-c4ccncc4)nc23)cc1` [Compound 433, N-[(4-chlorophenyl)methyl]-2-(4-pyridyl)-1H-imidazo[4,5-c]pyridin-4-amine], the Emax was in the range of 30 to 50%.
`CNc1nc2cnc(Nc3ccc(NC(C)=O)cc3)cc2n1Cc1ccccc1` [Compound 527, N-[4-[[1-benzyl-2-(methylamino)imidazo[4,5-c]pyridin-6-yl]amino]phenyl]acetamide]: the Emax was in the range of 50 to 100%.
The result for `COCCNc1nc2cnc(-c3ccc4c(c3)OCO4)cc2n1C` [Compound 759, 6-(1,3-benzodioxol-5-yl)-N-(2-methoxyethyl)-1-methyl-imidazo[4,5-c]pyridin-2-amine] reads 0 to 30%; that for `CNC(=O)c1cccc(-c2cc3c(cn2)nc(NCCOC)n3C)c1` [Compound 652, 3-[2-(2-methoxyethylamino)-1-methyl-imidazo[4,5-c]pyridin-6-yl]-N-methyl-benzamide], 50 to 100%.
For the compound `CNc1nc2cnc(Nc3ccc(N4CCOCC4)cc3)cc2n1CC1CC1` [Compound 571, 1-(cyclopropylmethyl)-N2-methyl-N6-(4-morpholinophenyl)imidazo[4,5-c]pyridine-2,6-diamine], the Emax is 50 to 100%.
As to `COc1ccc(-c2nc3c(Nc4ccccc4)nccc3[nH]2)cc1OC` [Compound 342, 2-(3,4-dimethoxyphenyl)-N-phenyl-1H-imidazo[4,5-c]pyridin-4-amine], the Emax was 50 to 100%.
`CC(=O)Nc1cccc(Nc2nccc3c2cc(-c2ccsc2)n3C)c1` [Compound 287, N-[3-[[1-methyl-2-(3-thienyl)pyrrolo[3,2-c]pyridin-4-yl]amino]phenyl]acetamide]: the Emax lay within 50 to 100%.
With `c1cncc(Nc2nccc3[nH]c(-c4ccco4)nc23)c1` [Compound 465, 2-(2-furyl)-N-(3-pyridyl)-1H-imidazo[4,5-c]pyridin-4-amine] the figure was 0 to 30%; with `Cc1cccc(CNc2nc3cnc(-c4ccc(N(C)C)cc4)cc3n2C)c1` [Compound 802, 6-(4-dimethylaminophenyl)-1-methyl-N-(m-tolylmethyl)imidazo[4,5-c]pyridin-2-amine], 50 to 100%.
With `COc1cccc(-c2nc3c(Nc4cccc(S(C)(=O)=O)c4)nccc3[nH]2)c1F` [Compound 477, 2-(2-fluoro-3-methoxy-phenyl)-N-(3-methylsulfonylphenyl)-1H-imidazo[4,5-c]pyridin-4-amine] the figure was 30 to 50%; with `Cn1c(-c2cccc(F)c2)nc2cnc(Nc3ccc4c(c3)OCO4)cc21` [Compound 714, N-(1,3-benzodioxol-5-yl)-2-(3-fluorophenyl)-1-methyl-imidazo[4,5-c]pyridin-6-amine], 50 to 100%.
For the compound `COc1ccc(Nc2cc3[nH]c(-c4cncn4C)cc3cn2)cc1OC` [Compound 102, N-(3,4-dimethoxyphenyl)-2-(3-methylimidazol-4-yl)-1H-pyrrolo[3,2-c]pyridin-6-amine], the Emax is > 100%.
